Assays:
[1] = target: T1, Alkaline phosphatase, tissue-nonspecific isozyme (Homo sapiens, UniProt P05186); assay: Inhibition of TNAP (unknown origin) in whole blood using pNPP as substrate
T1 sequence (P05186 whole entry): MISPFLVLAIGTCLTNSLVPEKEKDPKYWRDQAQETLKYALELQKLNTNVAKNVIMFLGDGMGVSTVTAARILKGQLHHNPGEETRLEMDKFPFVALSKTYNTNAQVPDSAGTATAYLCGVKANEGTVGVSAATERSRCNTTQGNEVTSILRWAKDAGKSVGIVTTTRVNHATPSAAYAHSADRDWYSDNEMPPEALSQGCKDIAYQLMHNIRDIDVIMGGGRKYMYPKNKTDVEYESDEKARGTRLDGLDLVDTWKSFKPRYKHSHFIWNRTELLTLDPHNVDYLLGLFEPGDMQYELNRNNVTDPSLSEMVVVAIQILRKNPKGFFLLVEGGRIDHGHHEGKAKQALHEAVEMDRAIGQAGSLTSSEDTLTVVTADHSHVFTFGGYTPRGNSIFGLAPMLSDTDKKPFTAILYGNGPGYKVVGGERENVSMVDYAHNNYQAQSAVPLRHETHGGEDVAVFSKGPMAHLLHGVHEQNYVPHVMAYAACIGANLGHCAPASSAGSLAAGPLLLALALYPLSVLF

[2] = target: T1, Alkaline phosphatase, tissue-nonspecific isozyme; assay: Inhibition of TNAP (unknown origin) using PPi as substrate
[3] = Half life in mouse at 10 mg/kg, po; type: ADME, organism-based; conditions: in vivo
[4] = Cmax in mouse at 10 mg/kg, po; type: ADME, organism-based; design: dose 10 mg/kg, route oral; conditions: in vivo
[5] = tested on: Mus musculus; assay: In vivo inhibition of TNAP in mouse plasma at 10 mg/kg, po administered as single dose after 8 hrs relative to control; type: functional
[6] = tested on: Mus musculus; assay: Oral bioavailability in mouse at 10 mg/kg; type: ADME, organism-based; conditions: in vivo
[7] = target: Intestinal-type alkaline phosphatase (Homo sapiens, UniProt P09923); assay: Inhibition of IAP (unknown origin)
Sequence of Intestinal-type alkaline phosphatase (P09923 whole entry): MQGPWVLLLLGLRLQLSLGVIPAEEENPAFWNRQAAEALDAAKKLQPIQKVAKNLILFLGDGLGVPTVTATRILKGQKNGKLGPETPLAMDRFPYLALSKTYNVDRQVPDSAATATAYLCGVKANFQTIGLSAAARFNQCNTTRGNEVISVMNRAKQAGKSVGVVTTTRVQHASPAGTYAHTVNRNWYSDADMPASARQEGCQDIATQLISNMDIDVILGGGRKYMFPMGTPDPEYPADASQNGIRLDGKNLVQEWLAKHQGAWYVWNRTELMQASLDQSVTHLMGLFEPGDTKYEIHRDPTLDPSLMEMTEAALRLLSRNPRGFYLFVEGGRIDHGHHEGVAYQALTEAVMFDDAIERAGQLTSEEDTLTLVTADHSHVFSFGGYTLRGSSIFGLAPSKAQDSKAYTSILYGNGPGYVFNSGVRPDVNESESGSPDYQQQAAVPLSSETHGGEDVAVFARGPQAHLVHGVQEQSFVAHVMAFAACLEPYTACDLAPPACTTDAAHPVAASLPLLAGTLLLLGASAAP

[8] = tested on: Mus musculus; assay: (§1) AUC in mouse at 10 mg/kg, po; type: ADME, organism-based; conditions: in vivo
[9] = target: Alkaline phosphatase, placental type (Homo sapiens, UniProt P05187); assay: Inhibition of PLAP (unknown origin)
Sequence of Alkaline phosphatase, placental type (P05187 whole entry): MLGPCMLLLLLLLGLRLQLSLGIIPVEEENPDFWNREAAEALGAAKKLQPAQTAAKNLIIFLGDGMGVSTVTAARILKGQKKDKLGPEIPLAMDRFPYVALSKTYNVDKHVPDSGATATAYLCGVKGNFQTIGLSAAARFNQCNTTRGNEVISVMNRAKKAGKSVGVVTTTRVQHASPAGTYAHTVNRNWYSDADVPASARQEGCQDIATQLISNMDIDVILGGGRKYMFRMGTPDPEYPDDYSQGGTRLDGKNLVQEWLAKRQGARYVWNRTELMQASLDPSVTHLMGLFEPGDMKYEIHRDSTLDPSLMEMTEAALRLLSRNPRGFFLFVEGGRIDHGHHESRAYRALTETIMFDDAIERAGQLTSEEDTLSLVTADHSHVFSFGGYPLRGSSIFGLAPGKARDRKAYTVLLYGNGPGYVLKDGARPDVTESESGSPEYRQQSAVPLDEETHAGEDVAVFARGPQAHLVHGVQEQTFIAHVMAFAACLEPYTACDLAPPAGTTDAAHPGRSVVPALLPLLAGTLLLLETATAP

[10] = Volume of distribution in mouse at 2 mg/kg, iv; type: ADME, organism-based; conditions: in vivo
[11] = tested on: Mus musculus; assay: In vivo inhibition of TNAP in mouse plasma at 10 mg/kg, po administered as single dose measured at 24 hrs relative to control; type: functional
[12] = as §1; type: ADME, organism-based; conditions: in vivo
[13] = Clearance in mouse plasma at 2 mg/kg, iv; type: ADME, organism-based

| IC50 [1] [nM] | IC50 [2] [nM] | half-life [3] [h] | Cmax [4] [µg/mL] | F [6] [%] | IC50 [7] [nM] | AUC [8] [µg·h/mL] | IC50 [9] [nM] | Vd [10] [L/kg] | AUC [12] [µg·h/mL] | clearance [13] [mL/min/kg] | SMILES | inhibition in vivo at 10 mg/kg [5] [%] | inhibition in vivo at 10 mg/kg [11] [%] |
| --- | --- | --- | --- | --- | --- | --- | --- | --- | --- | --- | --- | --- | --- |
| > 20000 | 876 |  |  |  |  |  |  |  |  |  | COc1ccc(-c2ccccc2)cc1S(=O)(=O)Nc1cccnc1 |  |  |
| 105 |  | 2.3 | 178 | 58 | > 80000 | 848 | > 80000 | 1.03 |  |  | COc1ccc(Cl)cc1S(=O)(=O)Nc1cncc(C(N)=O)c1 | > 75 | 50 |
|  |  | 2.2 | 133 | 70 |  | 603 |  | 0.31 |  |  | COc1ccc(Br)cc1S(=O)(=O)Nc1cncc(C(N)=O)c1 |  |  |
|  |  | 3.7 | 63 | > 100 |  |  |  | 0.88 | 141 | 16.8 | COc1ccc(F)cc1S(=O)(=O)Nc1cncc(C(N)=O)c1 |  |  |

Reference: ChEMBL document CHEMBL4184174 (Bioorg Med Chem Lett, 2018)
